Entries after “also recorded” stand apart in the source; their conditions may differ. Read-outs that look alike come from different tables or passages of the source.
How the values were obtained:
[1] = molecular target: T1, 17(alpha)-hydroxylase/C17,20-lyase (Rattus norvegicus, UniProt P11715); assay: Hydroxylase/lyase assay, rat testis homogenates, [21-14C]-progesterone side-chain cleavage (Examples 2 and 3, Table 2); type: biochemical; settings: progesterone 40 microM, 45 min
T1 construct: with rat testis homogenates (2.7 mg protein in 0.5 ml phosphate buffer); from tissue; host or cells: rat testis homogenate
T1 sequence (P11715 1-507): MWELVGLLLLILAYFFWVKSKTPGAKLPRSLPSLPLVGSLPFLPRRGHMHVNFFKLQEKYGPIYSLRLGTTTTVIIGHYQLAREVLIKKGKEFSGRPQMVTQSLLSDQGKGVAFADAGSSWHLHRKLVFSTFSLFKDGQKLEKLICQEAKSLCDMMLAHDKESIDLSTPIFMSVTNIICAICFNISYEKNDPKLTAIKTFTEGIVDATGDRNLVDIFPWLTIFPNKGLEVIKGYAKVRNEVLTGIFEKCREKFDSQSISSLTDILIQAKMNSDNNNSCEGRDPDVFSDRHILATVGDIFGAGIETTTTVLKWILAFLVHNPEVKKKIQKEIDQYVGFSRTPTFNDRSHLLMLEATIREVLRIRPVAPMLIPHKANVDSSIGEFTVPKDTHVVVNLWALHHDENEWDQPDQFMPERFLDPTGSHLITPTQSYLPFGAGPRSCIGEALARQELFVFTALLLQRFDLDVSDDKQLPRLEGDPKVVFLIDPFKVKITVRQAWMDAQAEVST
Procedure: Compounds I-16 and I-25 were synthesized according to known procedures. The compounds were then assayed for their ability to inhibit the 17(alpha)-hydroxylase/C17,20 -lyase enzyme and the 5(alpha)-reductaseenzyme. The hydroxylase/lyase assay was carried out by incubation of [21-^14 C]-progesterone (40 microM, 70,000 dpm) and candidate inhibitors with rat testis homogenates (2.7 mg protein in 0.5 ml phosphate buffer), NADPH generating system under oxygen for 45 minutes. The enzyme activity was measured according to the conversion of progesterone to the product of C17,20 -side chain cleavage ([2-^14 C]-acetic acid). […] The results were based on the TLC separation.

C17,20-lyase = molecular target: T2, C17,20-lyase (Rattus norvegicus, UniProt P11715); assay: C17,20-lyase assay, rat testicular microsomes (Example 1, Table 1); type: biochemical
T2 construct: approximately 1 mg rat testicular microsomal protein in 450 microliters phosphate buffer; from tissue; host or cells: testes of adult male Sprague-Dawley rats (Charles River), microsomal fraction
T2 sequence (P11715 1-507): T1 sequence (P11715 1-507)
Procedure: (§1) Testes were obtained from 220°-250g adult male Sprague-Dawley rats (Charles River), immediately frozen in liquid nitrogen and stored at -70° C. After thawing in the ice bath, the testes were minced and homogenized in 0.25M sucrose (1:4 w/v), then centrifuged at 12,000×gfor 30 min and the resulting supernatant centrifuged at 105,000×g for one hour. The supernatant was then decanted and the pellet containing the microsomes was resuspended in 0.1M sodium phosphate buffer (pH 7.4) (2.5g wet weight of tissue/ 2 ml buffer). All the above procedures were performed at 4C. The microsomal fraction was stored at -70C. Just before use, microsomes were diluted to the concentration of 1.25 g wet weight of tissue/10 ml phosphate buffer.
(§2) C^17,20 -Lyase: The procedure for measurement of the C17,20 -lyase was similar to the procedure for the 17(alpha)-hydroxylase, except that the substrate was 17(alpha)-hydroxy-[[1,2,6,7-^3 H]-progesterone (various concentration, 10^5 dpm) and recovery markers were [4-^14 C]-labelled steroids. Carrier steroids (170HP4, A and T) were also added to locate the product areas on the TLC plates. The enzyme activity was determined from the percent conversion of 17(alpha)-hydroxy-[1,2,6,7-3H]-progesterone to A and T.
The purity of each steroid on the TLC was confirmed by two methods. First, the percent conversion of each compound in a half amount of the extract from one incubation were compared after separation of TLC and HPLC. The HPLC procedure has been described in detail previously. The solvent system used was methanol/acetonitrile/water (15.6:36.4:48). […] Secondly, after the first separation by TLC in solvent system A (hexane/ethyl acetate 65:35), the eluted steroids were chromatographed in solvent system B (chloroform/acetonitrile, 85:15).

5(alpha)-reductase = molecular target: T3, 5(alpha)-reductase (Homo sapiens, UniProt P31213); assay: 5(alpha)-reductase assay, human prostatic (BPH) tissue homogenates (Example 1, Table 1); settings: result in words
T3 sequence (P31213 1-254): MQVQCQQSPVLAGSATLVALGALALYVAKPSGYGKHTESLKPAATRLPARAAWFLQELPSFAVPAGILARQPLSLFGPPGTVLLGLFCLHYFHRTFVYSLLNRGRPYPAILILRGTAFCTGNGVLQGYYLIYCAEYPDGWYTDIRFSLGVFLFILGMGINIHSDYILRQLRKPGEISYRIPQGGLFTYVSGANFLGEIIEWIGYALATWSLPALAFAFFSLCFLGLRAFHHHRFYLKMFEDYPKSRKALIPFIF
Procedure: Tissue was homogenized in 0.1M phosphate buffer (60 mg wet weight of tissue/ ml buffer, pH 7.4) at 4C and the homogenates were diluted with an equal volume of buffer before use.
5(alpha)-reductase: [7-^3 H]testosterone (10^6 dpm) was incubated for 30 minutes at 37° C. with the NADPH generating system, homogenate of human prostatic tissue (30mg wet weight of tissue/1 ml buffer) and the candidate inhibitors at concentrations ranging from 0.1-10uM. […] The steroids were extracted with ether and the extracts chromatographed on TLC (chloroform: ether 95:5). […] The steroids were scraped from the plate and radioactivity measured.

[2] = in vivo; cited from earlier work
17(alpha)-hydroxylase = molecular target: T4, 17(alpha)-hydroxylase (Rattus norvegicus, UniProt P11715); assay: 17(alpha)-hydroxylase assay, rat testicular microsomes (Example 1, Table 1); type: biochemical
T4 construct: approximately 1 mg rat testicular microsomal protein in 450 microliters phosphate buffer; from tissue; host or cells: testes of adult male Sprague-Dawley rats (Charles River), microsomal fraction
T4 sequence (P11715 1-507): T1 sequence (P11715 1-507)
Procedure: as §1
(§3) The incubation was stopped by cooling the mixture in an ice bath and adding 2 ml ether to each incubation tube. The ^3 H-labelled steriods (progesterone P4; 17(alpha)-hydroxyprogesterone 170HP4, androstenedione A and testosterone T, 8,000dpm each) were added as recovery markers and the steroids were extracted with ether (2 ml×3). The ether was evaporated with air. Steroid carriers (P4, 17-0HP4, A and T, 4 micrograms each) were added to the extracts which were then applied to thin layer chromatography (TLC) plates for separation of the steroids. After development for 1.5 hours in hexanes/ethyl acetate, 65:35(v/v), the steroids were located by UV (254 nm) absorption, scraped off and eluted into scintillation vials with ether. After evaporating the ether, the steroids were dissolved in counting cocktail and the radioactivity measured. The recovery of steroids calculated from the ^3 H-labelled markers was between 80 to 90 percent and the enzyme activity was determined from the percentage conversion of [4-C^14 ]-progesterone to 170HP4, A and T.
The purity of each steroid on the TLC was confirmed by two methods. First, the percent conversion of each compound in a half amount of the extract from one incubation were compared after separation of TLC and HPLC. The HPLC procedure has been described in detail previously. The solvent system used was methanol/acetonitrile/water (15.6:36.4:48). The flow rate was 1 ml/min and pressure 2200 psi, the retention time of these steroids was P4 38.3 min, 170HP4 15.93 min, A 14.33 min, and T 11.43 min, respectively. Secondly, after the first separation by TLC in solvent system A (hexane/ethyl acetate 65:35), the eluted steroids were chromatographed in solvent system B (chloroform/acetonitrile, 85:15).
^1 Incubation of [4^14 Cprogesterone (various concentration,
microsome (approximately 1 mg protein) and NADPH generating system was
carried out at 37 C. under O2 for 30 min. The apparent Km for this

[3] = molecular target: T5, 17(alpha)-hydroxylase/17,20-lyase enzyme (Rattus norvegicus, UniProt P11715); assay: 17(alpha)-hydroxylase/17,20-lyase inhibition, rat testicular microsomes (Example 1); type: biochemical; settings: according to Ki values, result in words; listed as 4-pregnen-3-one-20(beta)-aldoxime
T5 sequence (P11715 1-507): T1 sequence (P11715 1-507)
Procedure: as §1
as §3, with “After development for 1.5 hours in hexanes/ethyl acetate, 65:35(v/v), the steroids were located by UV (254 nm) absorption, scraped off and eluted into scintillation vials with ether.” left out
as §2, with “Carrier steroids (170HP4, A and T) were also added to locate the product areas on the TLC plates.” left out

DHT in the prostate = assay: In vivo study: DHT concentration in the prostate of male rats (RIA); parameters: species or system rat (male Sprague-Dawley); settings: 50 mg/kg/day sc, 21 days
Procedure: (§4) A group of 8 adult male Sprague-Dawley rats were injected sc with vehicle (0.3% hydroxypropyl cellulose, HPC) and a group of 8 rats were injected sc with a suspension of the compound I-23 in HPC (50 mg/kg body weight/day) every 24 hours for 21 days. The rats were autopsied at the last day, the ventral prostates and blood samples were collected. The prostate tissues were stored at -70° C. and the sera were separated first by centrifugation at 2,200 rpm, then stored at -15° C. until assayed. The DHT levels in the rat prostates were measured by radioimmunoassay (RIA) using testosterone/dihydrotestosterone RIA kit from Amersham Co. (Illinois). The testosterone levels in the rat sera were measured by using the [^125 I]-testosterone diagnostic kits (ICN Biochemics Inc.). The results obtained were analyzed by using Student t test.
(§5) The 4-pregnen-3-one-20(beta)-aldoxime was also studied for its effect on male rats in vivo. Male rats were daily treated with the compound at the dose of 50 mg/kg body weight injected subcutaneously for 21 days. […] The serum testosterone of these rats was measured as well.

[4] = molecular target: T6, rat testicular 17(alpha)-hydroxylase/C17,20-lyase (Rattus norvegicus, UniProt P11715); assay: Hydroxylase/lyase assay, rat testicular homogenates, [21-14C]progesterone (Example 4, Table 3); type: biochemical; settings: 0.75 h
T6 construct: rat testicular homogenates (prepared from 220-250g adult male Sprague-Dawley rats); from tissue; host or cells: testes of adult male Sprague-Dawley rats, homogenate
T6 sequence (P11715 1-507): T1 sequence (P11715 1-507)
Procedure: The assay was performed by incubation of rat testicular homogenates (prepared from 220-250g adult male Sprague-Dawley rats, approx. 3.5 mg protein) with [21-^14 C]progesterone (40uM, 5×10^4 dpm), NADPH generating system and candidate inhibitors in phosphate buffer (pH 7.4, total volume 500ul) under oxygen for 45 min at 37° C. Two ml of choloroform was added to each tube to stop the reaction. The steriods were extracted with chloroform and the aqueous phase was treated with charcoal. The side chain cleavage product [2-^14 C]acetic acid in the aqueous phase was mixed with 3a70B counting cocktail and counted on the Rack Beta II liquid scintillation counter. The enzyme activity was determined from the conversion of progesterone P4 to [2-^14 C]acetic acid.

serum testosterone = assay: In vivo study: serum testosterone of male rats (RIA); parameters: species or system rat (male Sprague-Dawley); settings: 50 mg/kg/day sc, 21 days
Procedure: as §4, §5

| % Inhibition of 17(alpha)hydroxylase/lyase, [I] = 10 × [S] ([1]; [I] = 10 × [S]) [%] | % Inhibition of 17(alpha)hydroxylase/lyase, [I] = [S] ([1]; [I] = [S]) [%] | Ki (C17,20-lyase; rat testicular microsomes, 17(alpha)-hydroxyprogesterone substrate, 30 min, 37 C, N.I. = no inhibition, read-out: C17,20-lyase Ki) [µM] | inhibition of 5(alpha)-reductase in the human prostate (5(alpha)-reductase) | Ki (17(alpha)-hydroxylase; rat testicular microsomes, progesterone substrate, 30 min, 37 C, N.I. = no inhibition, read-out: 17(alpha)-hydroxylase Ki) [µM] | Structure (SMILES) | cortisol production and side-effects, in words [2] | Ki (C17,20-lyase) [µM] | potency versus Ketoconazole, C17,20-lyase (C17,20-lyase; FIG. 2, result in words) | type of inhibition of the lyase (C17,20-lyase; Lineweaver-Burk) | potency relative to ketoconazole for rat testicular C17,20-lyase (C17,20-lyase; according to the Ki values) | selectivity lyase versus hydroxylase [3] | Ki (17(alpha)-hydroxylase) [µM] | type of inhibition of the hydroxylase (17(alpha)-hydroxylase; Lineweaver-Burk) | prostatic DHT levels, effect in words (DHT in the prostate) | inhibition at 400 µM ([4]; pH 7.4, read-out: Inhibition of 17(alpha)-hydroxylase/C17,20-lyase (%), [I] = 10 × [S]) [%] | inhibition at 40 µM ([4]; pH 7.4, read-out: Inhibition of 17(alpha)-hydroxylase/C17,20-lyase (%), [I] = [S]) [%] | serum testosterone (serum testosterone; n=8, control 4.03±0.64, P<0.005) [ng/ml serum] | plasma testosterone concentrations, effect in words (serum testosterone; rats) |
| --- | --- | --- | --- | --- | --- | --- | --- | --- | --- | --- | --- | --- | --- | --- | --- | --- | --- | --- |
| 65.80 | 31.53 | 3.6 | did not inhibit | 39.5 | CC(=O)N1CCN(c2ccc(OCC3COC(Cn4ccnc4)(c4ccc(Cl)cc4Cl)O3)cc2)CC1 (stereo not drawn) [Ketoconazole, reference compound] | reduces cortisol production and has a number of side-effects | – | – | – | – | – | – | – | – | – | – | – | – |
| – | – | – | – | – | C[C@H](C=NO)[C@H]1CC[C@H]2[C@@H]3CCC4=CC(=O)CC[C@]4(C)[C@H]3CC[C@]12C [Compound I-23, 4-pregnen-3-oxo-20(beta)-carboxaldehyde oxime] | – | 1.07 | more potent than Ketoconazole | competitive inhibition | approximately 3.5 fold | more specific inhibitor for the lyase than for the hydroxylase; also recorded: preferentially inhibited the lyase rather than the hydroxylase step | 31.2 | competitive inhibition | effective in reducing | 84 | 39.3 | 1.60±0.37 | effective in reducing plasma testosterone concentrations |
